# Source: patent publication US9028860B2, “Partially microcellular, selectively hydrophilic composite construct for ocular drug delivery” (Poly-Med, Inc., priority 2010, dated 2015)
# Assay: Drug delivery profile: diffusion of loaded drug from foam-film composite to wetted receptor foam piece, HPLC
# Type: physicochemical
# Details: 1x1 cm composite loaded with 100 μL of 261.5 mg/mL solution; on wetted 2x2 cm foam piece; 10 minutes, 37° C.
# Method: • A foam-film composite made using the process outlined in example 3 was used to evaluate the drug delivery profile of said composite after drug loading. This was done by loading a dry 1×1 cm piece of the composite foam-film with 100 μL of our 261.5 mg/mL solution of dexamethasone disodium phosphate in nanopure water. This piece was then placed on top of a wetted 2×2 cm piece without the flexible film. These two pieces were left in contact for a period of 10 minutes at 37° C. After […] the pieces were separated and the receptor (bottom) piece was placed into a vial. At this point 5 mL of water was added to the vial and the piece was shaken in this new volume of water for 10 minutes. The aqueous layer was then filtered through a 0.45 μm filter and run on a reverse phase HPLC. Using a C18 column and a 12 minute gradient method of water and acetonitrile, it was determined that about 12 mg or about 45% of the loaded DSP diffused to the receptor (bottom) piece.
smiles,measurement,value
"C[C@@H]1C[C@H]2[C@@H]3CCC4=CC(=O)C=C[C@]4(C)[C@@]3(F)[C@@H](O)C[C@]2(C)[C@@]1(O)C(=O)COP(=O)([O-])[O-].[Na+].[Na+] [DSP, dexamethasone disodium phosphate]",amount of DSP diffused to the receptor (bottom) piece,about 12 mg
same,percent of the loaded DSP diffused to the receptor (bottom) piece,about 45%
